Source: article PMC11061419, “Identification of novel small molecule inhibitors of twin arginine translocation (Tat) pathway and their effect on the control of Campylobacter jejuni in chickens” (Frontiers in Microbiology, 2024)
Converted amounts (≈) assume the structure as drawn.

Assays:
[1] = system: C. jejuni (mixture of five strains) in chicken ceca; test: C. jejuni persistence in ceca of 5-week-old colonized chickens; type: in vivo; conditions: for reduction in C. jejuni population per gram of cecum compared with the DMSO control group: 5-week-old chickens, oral twice a day for 5 days, approximately 0.225 mg of SM per kg body weight
Method: Four SMs (T1, T2, T7, and T8) were selected from the initial list of eight SMs based on their low MBC in Caco2 cells (<5 μg SM/ml), low cytotoxicity indexes (<20% toxicity at 5 μg SM /ml), and their minimal effect on commensal bacterial species (less than two species inhibited by the SM out of the seven strains tested; Table 1). The antimicrobial efficacy of our SM was tested on 5-week-old chickens, to assess the clearance of C. jejuni load right before slaughter age. Overall, 5-week-old Campylobacter-free, i.e., specific pathogen-free [SPF] chickens were inoculated orally with a mixture of five C. jejuni strains (10^5 CFU/chicken, Supplementary Table S3). Rectal swabs were collected 1 day post-inoculation (DPI) to confirm C. jejuni colonization (CFU/g of feces) in birds. From 2 DPI to 7 DPI, groups of 4–5 chickens were treated orally twice a day with one of the four SMs (T1, T2, T7, or T8; approximately 0.225 mg of SM per kg body weight). Details of the treatment groups and the inoculum are shown in Supplementary Table S3.
For both experiments, C. jejuni colonized-chickens treated with 0.0001% DMSO and colonized chickens without additional carrier treatment (non-treated) were used as controls (n = 3–6 chicken per group). Details of the treatment groups and the inoculum are shown in Supplementary Table S3. Both 3 and 5-week-old chickens were euthanized at 7 DPI using carbon dioxide gas and ceca (cecal content and the pouch) and were aseptically collected. One of the ceca pairs was immediately stored at −80°C for microbiota studies. The other ceca were suspended in 1X PBS, homogenized, serially diluted, plated on MH media supplemented with Campylobacter Selective Supplement (CSS) agar plate, and incubated for 48 h at 42°C in microaerophilic conditions to determine C. jejuni load in the ceca (CFU/g of ceca).

[2] = system: Campylobacter spp. (12 strains); test: Activity spectrum against Campylobacter strains at 6.25 μg/mL with 0.5 mM CuSO4; type: cell-based, Campylobacter jejuni, Campylobacter coli; conditions: 6.25 μg/mL SM
C. jejuni 81–176 = test: Copper sulfate sensitivity dose–response assay in vitro (MIC/MBC); type: cell-based, Campylobacter jejuni; conditions: for MBC / MIC: Campylobacter jejuni, 0.5 mM CuSO4, head displaced; for MBC: read-out: MBC, C. jejuni (Table S5); for MIC: read-out: MIC, C. jejuni (Table S4); for C. jejuni 81–176 in vitro MBC: minimal bactericidal concentration in presence of 0.5 mM CuSO4; for C. jejuni 81–176 in vitro MIC: minimal bacteriostatic concentration in presence of 0.5 mM CuSO4
Method: (§1) In total, 19 SMs were two-fold serially diluted to obtain a final SM concentration ranging from 6.25 to 0.012 μg/mL. C. jejuni 81–176 was then treated with a determined concentration of SM, as described in the copper sensitivity assay. […] The lowest bactericidal SM concentration was considered the MBC (no increase in OD600 over time and no viable cells were recovered on agar plate after challenge) (N = 3 replicates per SM). […] However, these SMs were two-fold serially diluted to obtain a final SM concentration ranging from 5 μg to 0.0625 μg for testing (N = two independent experiments with four technical replicate for each SM).

C. jejuni Au-20 = test: as above; type: cell-based; conditions: Campylobacter jejuni; for MIC: AU20, read-out: MIC, Au-20 (Table S4); for MBC: AU20, 0.5 mM CuSO4, read-out: MBC, Au-20 (Table S5)
Method: (§2) Campylobacter jejuni 81–176 was the primary model strain used for the selection of the potential Tat-dependent inhibitors by high-throughput screening. C. jejuni 81–176 is resistant to 0.5 and 1 mM CuSO4 (Supplementary Figure S1). C. jejuni 81–176 tatC knockout mutant (C. jejuni ΔtatC) was used to confirm the Tat-dependent inhibitory effect of the selected SM. C. jejuni ΔtatC is susceptible to 0.5 mM and higher of CuSO4 ([Rajashekara et al., 2009]). The specificity of the Tat-dependent inhibitors was also tested on 11 additional Campylobacter strains (C. coli ATCC33559 and 10 other C. jejuni strains isolated from chickens) and 7 commensal/beneficial bacteria (Supplementary Table S1). The […] (Au-13, Au-20, Au-38, Au-39, Au-47, Au-50, Au-24, Au-32, Au-44, and Au-45) were selected based on their single nucleotide polymorphism (SNP)-type and percent of prevalence in chickens ([Merchant-Patel et al., 2008]; [Kumar et al., 2016]). Additional details about the bacterial strains are shown in Supplementary Table S1.
as §1

C. jejuni Au-13 = test: as above; type: cell-based; conditions: Campylobacter jejuni; for MIC: AU13, read-out: MIC, Au-13 (Table S4); for MBC: AU13, 0.5 mM CuSO4, read-out: MBC, Au-13 (Table S5)
Method: as §2, §1

C. coli ATCC33559 = test: as above; type: cell-based; conditions: Campylobacter coli; for MIC: ATCC33559, read-out: MIC, C. coli (Table S4); for MBC: ATCC33559, 0.5 mM CuSO4, read-out: MBC, C. coli (Table S5)
Method: as §2, §1

C. jejuni Au-24 = test: as above; type: cell-based; conditions: Campylobacter jejuni; for MIC: AU24, read-out: MIC, Au-24 (Table S4); for MBC: AU24, 0.5 mM CuSO4, read-out: MBC, Au-24 (Table S5)
Method: as §2, §1

C. jejuni Au-32 = test: as above; type: cell-based; conditions: Campylobacter jejuni; for MIC: AU32, read-out: MIC, Au-32 (Table S4); for MBC: AU32, 0.5 mM CuSO4, read-out: MBC, Au-32 (Table S5)
Method: as §2, §1

C. jejuni Au-45 = test: as above; type: cell-based; conditions: Campylobacter jejuni; for MIC: AU45, read-out: MIC, Au-45 (Table S4); for MBC: AU45, 0.5 mM CuSO4, read-out: MBC, Au-45 (Table S5)
Method: as §2, §1

C. jejuni Au-38 = test: as above; type: cell-based; conditions: Campylobacter jejuni; for MIC: AU38, read-out: MIC, Au-38 (Table S4); for MBC: AU38, 0.5 mM CuSO4, read-out: MBC, Au-38 (Table S5)
Method: as §2, §1

C. jejuni Au-44 = test: as above; type: cell-based; conditions: Campylobacter jejuni; for MIC: AU44, read-out: MIC, Au-44 (Table S4); for MBC: AU44, 0.5 mM CuSO4, read-out: MBC, Au-44 (Table S5)
Method: as §2, §1

C. jejuni Au-39 = test: as above; type: cell-based; conditions: Campylobacter jejuni; for MIC: AU39, read-out: MIC, Au-39 (Table S4); for MBC: AU39, 0.5 mM CuSO4, read-out: MBC, Au-39 (Table S5)
Method: as §2, §1

C. jejuni Au-50 = test: as above; type: cell-based; conditions: Campylobacter jejuni; for MIC: AU50, read-out: MIC, Au-50 (Table S4); for MBC: AU50, 0.5 mM CuSO4, read-out: MBC, Au-50 (Table S5)
Method: as §2, §1

C. jejuni Au-47 = test: as above; type: cell-based; conditions: Campylobacter jejuni; for MIC: AU47, read-out: MIC, Au-47 (Table S4); for MBC: AU47, 0.5 mM CuSO4, read-out: MBC, Au-47 (Table S5)
Method: as §2, §1

Row | SMILES | reduction in C. jejuni population per gram of cecum compared with the DMSO control group [1] | Growth inhibition at 6.25 μg/mL, Campylobacter spp. (strains inhibited/tested) [2] | MBC (C. jejuni 81–176) | MIC (C. jejuni 81–176) | C. jejuni 81–176 in vitro MBC (C. jejuni 81–176) | C. jejuni 81–176 in vitro MIC (C. jejuni 81–176) | MIC (C. jejuni Au-20) | MBC (C. jejuni Au-20) | MIC (C. jejuni Au-13) | MBC (C. jejuni Au-13) | MIC (C. coli ATCC33559) | MBC (C. coli ATCC33559) | MIC (C. jejuni Au-24) | MBC (C. jejuni Au-24) | MIC (C. jejuni Au-32) | MBC (C. jejuni Au-32) | MIC (C. jejuni Au-45) | MBC (C. jejuni Au-45) | MIC (C. jejuni Au-38) | MBC (C. jejuni Au-38) | also measured
1 | CSc1ccccc1-c1nnc(NC(=O)Cc2ccccc2)o1 [T7] | 0.5 log | 12/12 | 0.16 µg/mL (≈ 0.492 µM) | 0.02 µg/mL (≈ 0.0615 µM) | 0.16 µg/mL | 0.02 µg/mL | 0.16 µg/mL (≈ 0.492 µM) | 0.32 µg/mL (≈ 0.983 µM) | 0.31 µg/mL (≈ 0.953 µM) | 0.62 µg/mL (≈ 1.91 µM) | 0.16 µg/mL (≈ 0.492 µM) | 0.32 µg/mL (≈ 0.983 µM) | 0.08 µg/mL (≈ 0.246 µM) | 0.16 µg/mL (≈ 0.492 µM) | 0.08 µg/mL (≈ 0.246 µM) | 0.16 µg/mL (≈ 0.492 µM) | 0.16 µg/mL (≈ 0.492 µM) | 0.32 µg/mL (≈ 0.983 µM) | 0.16 µg/mL (≈ 0.492 µM) | 0.32 µg/mL (≈ 0.983 µM) | decrease of cecal C. jejuni colonization/load ([1]; 3 and 5-week-old chickens, 5-day treatment twice a day, 0.225 mg or 0.127 mg of SM per kg body weight): up to 1.2 log; MIC (C. jejuni Au-44): 0.31 µg/mL (≈ 0.953 µM); MBC (C. jejuni Au-44): 1.24 µg/mL (≈ 3.81 µM); MIC (C. jejuni Au-39): 0.31 µg/mL (≈ 0.953 µM); MBC (C. jejuni Au-39): 0.62 µg/mL (≈ 1.91 µM); MIC (C. jejuni Au-50): 0.08 µg/mL (≈ 0.246 µM); MBC (C. jejuni Au-50): 0.32 µg/mL (≈ 0.983 µM); MIC (C. jejuni Au-47): 0.31 µg/mL (≈ 0.953 µM); MBC (C. jejuni Au-47): 0.62 µg/mL (≈ 1.91 µM)
2 | CCN(CC)/C(C)=N/C(=O)Nc1ccccc1 [T8] | 0.5 log | 12/12 | 0.12 µg/mL (≈ 0.514 µM) | 0.08 µg/mL (≈ 0.343 µM) | 0.12 µg/mL | 0.08 µg/mL | 0.25 µg/mL (≈ 1.07 µM) | 0.25 µg/mL (≈ 1.07 µM) | 0.06 µg/mL (≈ 0.257 µM) | 0.06 µg/mL (≈ 0.257 µM) | 0.25 µg/mL (≈ 1.07 µM) | 0.25 µg/mL (≈ 1.07 µM) | 0.06 µg/mL (≈ 0.257 µM) | 0.06 µg/mL (≈ 0.257 µM) | 0.25 µg/mL (≈ 1.07 µM) | 0.25 µg/mL (≈ 1.07 µM) | 0.25 µg/mL (≈ 1.07 µM) | 0.25 µg/mL (≈ 1.07 µM) | 0.06 µg/mL (≈ 0.257 µM) | 0.06 µg/mL (≈ 0.257 µM) | MIC (C. jejuni Au-44): 0.06 µg/mL (≈ 0.257 µM); MBC (C. jejuni Au-44): 0.12 µg/mL (≈ 0.514 µM); MIC (C. jejuni Au-39): 0.25 µg/mL (≈ 1.07 µM); MBC (C. jejuni Au-39): 0.25 µg/mL (≈ 1.07 µM); MIC (C. jejuni Au-50): 0.25 µg/mL (≈ 1.07 µM); MBC (C. jejuni Au-50): 0.5 µg/mL (≈ 2.14 µM); MIC (C. jejuni Au-47): 0.06 µg/mL (≈ 0.257 µM); MBC (C. jejuni Au-47): 0.06 µg/mL (≈ 0.257 µM)
